From ChEMBL document CHEMBL2439993, “Cynaropicrin targets the trypanothione redox system in Trypanosoma brucei” (Bioorg Med Chem, 2013)
Activity calls are given as the source filed them. No cut-off for these calls is given here.

Columns and labels:
[1] = system: Trypanosoma brucei rhodesiense; assay: Inhibition of ornithine decarboxylase in Trypanosoma brucei rhodesiense STIB900 assessed as intracellular ornithine level at 50 uM after 20 mins (reference value: 4 +/- 1 uM); type: cell-based
[2] = system: Trypanosoma brucei rhodesiense; assay: Induction of CYN-thiol adduct formation in Trypanosoma brucei rhodesiense assessed as extracellular CYN level at 50 uM after 40 mins by UHPLC-MS/MS analysis; type: organism-based; conditions: in vivo
[3] = system: Trypanosoma brucei rhodesiense; assay: Induction of CYN-thiol adduct formation in Trypanosoma brucei rhodesiense assessed as extracellular CYN level at 50 uM after 20 mins by UHPLC-MS/MS analysis; type: organism-based; conditions: in vivo
[4] = Induction of GS-CYN monoadduct formation by HPLC-MS analysis; type: physicochemical
[5] = system: Trypanosoma brucei rhodesiense; assay: Induction of CYN-thiol adduct formation in Trypanosoma brucei rhodesiense assessed as extracellular CYN level at 50 uM after 30 mins by UHPLC-MS/MS analysis; type: organism-based; conditions: in vivo, 0.5 h
Trypanosoma brucei [6] = assay: Inhibition of trypanothione synthatase in Trypanosoma brucei using GSH as substrate at 200 uM
[7] = system: Trypanosoma brucei rhodesiense; assay: Reduction of GSH level in Trypanosoma brucei rhodesiense at 50 uM after 40 mins by UHPLC-MS/MS analysis; type: functional, organism-based
[8] = Induction of T(SH)2-CYN adduct formation by HPLC-MS analysis; type: physicochemical
[9] = system: Trypanosoma brucei rhodesiense; assay: Induction of CYN-thiol adduct formation in Trypanosoma brucei rhodesiense assessed as intracellular CYN level at 50 uM after 5 mins by UHPLC-MS/MS analysis; type: organism-based; conditions: in vivo
[10] = system: Trypanosoma brucei rhodesiense; assay: Induction of CYN-thiol adduct formation in Trypanosoma brucei rhodesiense assessed as extracellular CYN level at 50 uM after 5 mins by UHPLC-MS/MS analysis; type: organism-based; conditions: in vivo
[11] = system: Trypanosoma brucei rhodesiense; assay: Induction of CYN-thiol adduct formation in Trypanosoma brucei rhodesiense assessed as extracellular CYN level at 50 uM after 10 mins by UHPLC-MS/MS analysis; type: organism-based; conditions: in vivo
[12] = system: Trypanosoma brucei rhodesiense; assay: Induction of CYN-thiol adduct formation in Trypanosoma brucei rhodesiense assessed as GS-CYN monoadduct level at 50 uM after 5 mins by UHPLC-MS/MS analysis; type: organism-based; conditions: in vivo
Trypanosoma brucei [13] = assay: Antitrypanosomal activity against Trypanosoma brucei assessed as stumpy phenotype at 50 uM after 40 mins by Giemsa staining-based light microscopy; type: functional, organism-based
Trypanosoma brucei [14] = assay: Irreversible inhibition of trypanothione synthatase in Trypanosoma brucei using GSH as substrate at 200 uM after 240 mins
[15] = system: Trypanosoma brucei rhodesiense; assay: Induction of CYN-thiol adduct formation in Trypanosoma brucei rhodesiense assessed as T(S-CYN)2 bisadduct level at 50 uM after 5 mins by UHPLC-MS/MS analysis; type: organism-based; conditions: in vivo
[16] = system: Trypanosoma brucei rhodesiense; assay: Reduction of T(SH)2 level in Trypanosoma brucei rhodesiense at 50 uM after 40 mins by UHPLC-MS/MS analysis; type: functional, organism-based
Trypanosoma cruzi = assay: Inhibition of trypanothione reductase in Trypanosoma cruzi using T(S)2 as substrate at 100 to 200 uM after 240 mins by spectrophotometry in presence of NADPH
Trypanosoma brucei [17] = assay: Antitrypanosomal activity against Trypanosoma brucei assessed as intermediate phenotype at 50 uM after 5 to 10 mins by Giemsa staining-based light microscopy; type: functional, organism-based

Structure (SMILES) | INH [1] [µM] | Activity [2] [µM] | Activity [3] [µM] | Activity [4] | Activity [5] [µM] | inhibition (Trypanosoma brucei [6]) | Activity [7] | Activity [8] | Activity [9] [µM] | Activity [10] [µM] | Activity [11] [µM] | Activity [12] [µM] | Activity (Trypanosoma brucei [13]) | inhibition (Trypanosoma brucei [14]) [%] | Activity [15] [µM] | Activity [16] | inhibition (Trypanosoma cruzi) | Activity (Trypanosoma brucei [17])
NCCCC(N)(C(=O)O)C(F)F (centres undefined) | 48 |  |  |  |  |  |  |  |  |  |  |  |  |  |  |  |  | 
C=C(CO)C(=O)O[C@H]1CC(=C)[C@@H]2C[C@H](O)C(=C)[C@@H]2[C@H]2OC(=O)C(=C)[C@@H]21 [CYNAROPICRIN] | 50 | 37.1 | 35.8 | Active | 33.3 | inactive | Active | Active | 23 | 34.9 | 39.6 | 42 | Active | 51 | 49 | Active | inactive | Active
